Assay [1] has as its system T. gondii tachyzoites (RH-YFP strain). In words: In vitro challenge assay for Toxoplasma tachyzoites (RH-YFP in HFF, fluorescence). The assay is classed as cell-based, Toxoplasma gondii. The settings on record: Toxoplasma gondii; RH-YFP; read-out: Tachy IC50. The method, then: Human foreskin fibroblasts (HFF) were cultured on a flat, clear-bottomed, black 96-well plate to 90% to 100% confluence. IMDM (1×, [+] glutamine, [+] 25 mM HEPES, [+] Phenol red, 10% FBS [gibco, Denmark]) was removed from each well and replaced with IMDM-C (1×, [+] glutamine, [+] 25 mM HEPES, [−] Phenol red, 10% FBS)[Gibco, Denmark]). Type I RH parasites expressing Yellow Fluorescent Protein (RH-YFP) were lysed from host cells by double passage through a 27-gauge needle. Parasites were counted and diluted to 32,000/mL in IMDM-C. Fibroblast cultures were infected with 3200 tachyzoites of the Type I RH-YFP strain and returned to incubator at 37° C. for 1-2 hours to allow for infection. Diluted solutions of the compounds were made using IMDM-C, and 20 μl were added to each designated well, with triplicates for each condition. Controls included pyrimethamine/sulfadiazine (current standard of treatment), DMSO only, fibroblast only, and an untreated YFP gradient with 2 fold dilutions of the parasite. Cells were incubated at 37° C. for 72 hours. The plates were read using a fluorimeter (Synergy H4 Hybrid Reader, BioTek) To ascertain the amount of yellow fluorescent protein, in relative fluorescence units (RFU), as a measure of parasite burden after treatment. Compounds were not considered effective or pursued for further analysis if there were no signs of inhibition at 1 μM. Data was collected using Gen5 software and analyzed with Excel.
Protocol adapted from Fomovska, et. al. (18,19). Human foreskin fibroblasts (HFF) were cultured on a flat, clear-bottomed, black 96-well plate to 90% to 100% confluence. IMDM (1×, [+] glutamine, [+] 25 mM HEPES, [+] Phenol red, 10% FBS [gibco, Denmark]) was removed from each well and replaced with IMDM-C (1×, [+] glutamine, [+] 25 mM HEPES, [−] Phenol red, 10% FBS)[gibco, Denmark]). Type I RH parasites expressing Yellow Fluorescent Protein (RH-YFP) were lysed from host cells by double passage through a 27-gauge needle. Parasites were counted and diluted to 32,000/mL in IMDM-C. Fibroblast cultures were infected with 3200 tachyzoites of the Type I RH strain expressing Yellow Fluorescent Protein (RH-YFP) and returned to incubator at 37° C. for 1-2 hours to allow for infection (15). Various concentrations of the compounds were made using IMDM-C, and 20 μl were added to each designated well, with triplicates for each condition. Controls included pyrimethamine/sulfadiazine (current standard of treatment), 0.1% DMSO only, fibroblast only, and an untreated YFP gradient with 2 fold dilutions of the parasite. Cells were incubated at 37° C. for 72 hours. Plates were read using a fluorimeter (Synergy H4 Hybrid Reader, BioTek) to ascertain the amount of yellow fluorescent protein, in relative fluorescence units (RFU), as a measure of parasite burden after treatment. Data was collected using Gen5 software. IC50 was calculated by graphical analysis in Excel.
An initial screening assay of 10 μM, 1 μM, 100 nM, and 10 nM was performed. Compounds were not considered effective or pursued for further analysis if there were no signs of inhibition of tachyzoites at 1 μM. If compounds did appear to be effective at 1 μM, another experiment was conducted to assess effect at 1 μM, 500 nM, 250 nM, 125 nM, 62.5 nM, and 31.25 nM.
Protocol adapted from Fomovska, et. al. (Fomovska A, Huang Q, El Bissati K, Mui E J, Witola W H, Cheng G, et al. Novel N-Benzoyl-2-Hydroxybenzamide Disrupts Unique Parasite Secretory Pathway. Antimicrob Agents Chemother [Internet]. 2012 May [cited 2015 Jul. 8]; 56(5):2666-82; Fomovska A, Wood R D, Mui E, Dubey J P, Ferreira L R, Hickman M R, et al. Salicylanilide inhibitors of Toxoplasma gondii. J Med Chem. 2012 Oct. 11; 55(19):8375-91.). Human foreskin fibroblasts (HFF) were cultured on a flat, clear-bottomed, black 96-well plate to 90% to 100% confluence. […]

In assay [2] the test system is P. falciparum strains D6, TM91-C235, W2, C2B. In words: Malaria SYBR Green I-Based Fluorescence (MSF) Assay. The settings on record: Plasmodium falciparum. The class given is cell-based, Plasmodium falciparum. The method, then:
Testing of P. falciparum: D6 is a drug sensitive strain from Sierra Leone, C235 is a multi-drug resistant strain from Thailand, W2 is a chloroquine resistant strain from Thailand, and C2B has resistance to a variety of drugs including atovaquone.
D6 is a drug sensitive strain from Sierra Leone, C235 is a multi-drug resistant strain from Thailand, W2 is a chloroquine resistant strain from Thailand, and C2B has resistance to a variety of drugs including atovaquone. These assays were performed as described.
(§1) Compound activity against P. falciparum, a causative agent of malaria, was tested using the Malaria SYBR Green I—Based Fluorescence (MSF) Assay. This; microtiter plate drug sensitivity assay uses the presence of malarial DNA as a measure of parasitic proliferation in the presence of antimalarial drugs or experimental compounds based on modifications of previously described methods by Plouffe et al (20) and Johnson et al. As the intercalation of SYBR Green I dye and its resulting fluorescence is relative to parasite growth, a test compound that inhibits the growth of the parasite will result in a lower fluorescence.
Selected compounds were examined for activity against four strains of P. falciparum: D6 (CDC/Sierra Leone), a drug-sensitive strain readily killed by chloroquine, TM91-C235, a multi-drug resistant strain resistant to chloroquine, W2, a chloroquine resistant strain from Thailand, and C2B has resistance to a variety of drugs including atovaquone.
D6 is a drug sensitive strain from Sierra Leone, C235 is a multi-drug resistant strain from Thailand, W2 is a chloroquine resistant strain from Thailand, and C2B has resistance to a variety of drugs including atovaquone. These assays were performed using standard protocols.
as §1, with “known in the art.” for “by Plouffe et al (20) and Johnson et al.”, “fluorescence. Selected compounds were examined for activity against four strains of P. falciparum: D6 (CDC/Sierra Leone), a drugsensitive strain readily killed by chloroquine, TM91-C235, a multi-drug resistant strain resistant to chloroquine, W2, a chloroquine resistant strain from Thailand, and C2B has resistance to a variety of drugs including atovaquone.” for “fluorescence.”

[3] abbreviates: D6 strain, read-out: Pf D6 IC50.
The mark [4] stands for this setting: C2B strain, read-out: SYBR Green C2B IC50.
Setting [5] is: D6 strain, read-out: SYBR Green D6 IC50.
The mark [6] stands for this setting: TM91C235 strain, read-out: SYBR Green C235 IC50.
[7] abbreviates: W2 strain, read-out: SYBR Green W2 IC50.

The structures appear in SMILES notation. pIC50: −log10 of the molar value. Where two headings read alike, the source gives them in different places.

For the compound `Cc1cc2[nH]c(C)c(-c3ccc(Oc4ccc(OC(F)(F)F)cc4)cc3)c(=O)n2n1` [JAG006, 2,5-dimethyl-6-(4 (4-(trifluoromethoxy)phenoxy)phenyl) pyrazolo[1,5-a]pyrimidin-7(4H)-one], the values for the negative logarithm of the IC50 (pIC50) in assay [1] and in assay [2] (setting [3]) were less than 6.00 and 6.54, respectively.

With `CSc1nc2[nH]c(C)c(-c3ccc(Oc4ccc(OC(F)(F)F)cc4)cc3)c(=O)n2n1` [JAG013, 5-methyl-2-(methylthio)-6-(4-(4-(trifluoromethoxy)phenoxy)phenyl)-[1,2,4]triazolo[1,5-a]pyrimidin-7(4H)-one], the pIC50 in assay [1] was less than 6.00; in assay [2] (setting [4]), 5.86; in assay [2] (setting [3]), 5.88; in assay [2] (setting [5]) it was 5.88; in assay [2] (setting [6]), 5.59; in assay [2] (setting [7]) it was 5.63.

On to `Cc1[nH]c2c(C#N)cnn2c(=O)c1-c1ccc(Oc2ccc(OC(F)(F)F)cc2)cc1` [JAG014, 5-methyl-7-oxo-6-(4-(4-(trifluoromethoxy)phenoxy)phenyl)-4,7-dihydropyrazolo[1,5-a]pyrimidine-3-carbonitrile], for which the pIC50 in assay [1] was less than 6.00; in assay [2] (setting [4]), 6.04; in assay [2] (setting [3]), 6.15; in assay [2] (setting [5]) it was 6.15; in assay [2] (setting [6]), 5.87; in assay [2] (setting [7]), 5.90.

Take `Cc1[nH]c2cc(-c3ccccc3)nn2c(=O)c1-c1ccc(Oc2ccc(OC(F)(F)F)cc2)cc1` [JAG015, 5-methyl-2-phenyl-6-(4-(4-(trifluoromethoxy)phenoxy)phenyl) pyrazolo[1,5-a]pyrimidin-7(4H)-one]: the negative-log IC50 (pIC50) in assay [1] is less than 6.00; in assay [2] (setting [4]) it was less than 4.70; in assay [2] (setting [3]) it was less than 4.70; in assay [2] (setting [5]), less than 4.70; in assay [2] (setting [6]) it was less than 4.70; in assay [2] (setting [7]), less than 4.70.

For `Cc1[nH]c2c(c(=O)c1-c1ccc(Oc3ccc(Cl)cc3)cc1)CCCC2` [JAG50, 3-(4-(4-chlorophenoxy)phenyl)-2-methyl-5,6,7,8-tetrahydroquinolin-4(1H)-one], the pIC50 in assay [1] was 7.26; in assay [2] (setting [3]) it was 7.33.

As to `Cc1[nH]c2c(c(=O)c1-c1ccc(Oc3ccc(OC(F)(F)F)cc3)cc1)CC(C)CC2` (stereo not drawn) [JAG106, 3(4-(4-Trifluoromethoxyphenoxy)phenyl)-2,6-dimethyl-5,6,7,8-tetrahydroquinolin-4(1H)-one], the pIC50 in assay [1] was approximately 6.00.

For `Cc1[nH]c2c(c(=O)c1-c1ccc(Oc3ccc(OC(F)(F)F)cc3)cc1)CCC(C)C2` (stereo not drawn) [JAG107, 3(4-(4-Trifluoromethoxyphenoxy)phenyl)-2,7-dimethyl-5,6,7,8-tetrahydroquinolin-4(1H)-one], the pIC50 in assay [1] was 6.00.

Regarding `CCC1CCc2c([nH]c(C)c(-c3ccc(Oc4ccc(OC(F)(F)F)cc4)cc3)c2=O)C1` (stereo not drawn) [JAG121, 7-Ethyl-2-methyl-3(4-(4-trifluoromethoxyphenoxy)phenyl)-5,6,7,8-tetrahydroquinolin-4(1H)-one], the pIC50 in assay [1] was 7.00.

Consider `Cc1[nH]c2cnccc2c(=O)c1-c1ccc(Oc2ccc(OC(F)(F)F)cc2)cc1` [JAG129, 3(4-(4-trifluoromethoxyphenoxy)phenyl)-2-methyl-1,7-napthyrid-4(1H)-one], for which, in assay [1], the pIC50 is 7.00.

Regarding `Cc1[nH]c2c(c(=O)c1-c1ccc(Oc3ccc(OC(F)(F)F)cc3)cc1)CCC(C(F)(F)F)C2` (stereo not drawn) [JAG162, 7-Trifluromethyl-2-methyl-3(4-(4-trifluoromethoxyphenoxy)phenyl)-5,6,7,8-tetrahydroquinolin-4(1H)-one], the negative-log IC50 (pIC50) in assay [1] was 6.30.

`Cc1[nH]c2ncnn2c(=O)c1-c1ccc(Oc2ccc(OC(F)(F)F)cc2)cc1` [MJM136, 5-methyl-6-(4-(4-(trifluoromethoxy)phenoxy)phenyl)-[1,2,4]triazolo[1,5-a]pyrimidin-7(4H)-one]: the pIC50 was 5.00 to 6.00 in assay [1]; 6.42 in assay [2] (setting [4]); 6.70 in assay [2] (setting [3]); 6.70 in assay [2] (setting [5]); 6.24 in assay [2] (setting [6]); 6.26 in assay [2] (setting [7]).

What is called pIC50 is −log10 of the IC50, conventionally taken in molar units.

Values taken from patent US11414385B2, “Compounds and methods for treating, detecting, and identifying compounds to treat apicomplexan parasitic diseases” (The University of Chicago, priority 2015, dated 2022).
